In patent publication US20250042876A1, “HERBICIDAL PYRAZOLE PYRIMIDINE COMPOUNDS” (SYNGENTA CROP PROTECTION AG, priority 2021, published 2025):

Key:
Format in all cases: in vivo
Conditions in all cases: 250 g/ha, evaluated after 13 days
[1] = test system: Amaranthus palmeri (AMAPA); assay: Pre-emergence herbicidal test, glasshouse
Method: (§1) Seeds of a variety of test species are sown in standard soil in pots Amaranthus palmeri (AMAPA), Amaranthus retoflexus (AMARE), Setaria faberi (SETFA), Echinochloa crus-galli (ECHCG), Ipomoea hederacea (IPOHE)). After cultivation for one day (pre-emergence) or after 8 days cultivation (post-emergence) under controlled conditions in a glasshouse (at 24/16° C., day/night; 14 hours light; 65% humidity), the plants are sprayed with an aqueous spray solution derived from the formulation of the technical active ingredient in acetone/water (50:50) solution containing 0.5% Tween 20 (polyoxyethelyene sorbitan monolaurate, CAS RN 9005-64-5). Compounds are applied at 250 g/ha unless otherwise stated. The test plants are then grown in a glasshouse under controlled conditions in a glasshouse (at 24/16° C., day/night; 14 hours light; 65% humidity) and watered twice daily. After 13 days for pre and post-emergence, the test is evaluated for the percentage damage caused to the plant. The biological activities are shown in the following table on a five-point scale (5=81-100%; 4=61-80%; 3=41-60%; 2=21-40%; 1=0-20%).

[2] = test system: Echinochloa crus-galli (ECHCG); assay: Pre-emergence herbicidal test, glasshouse
Method: as §1

Setaria faberi (SETFA) [3] = assay: Pre-emergence herbicidal test, glasshouse
Method: as §1

[4] = test system: Ipomoea hederacea (IPOHE); assay: Pre-emergence herbicidal test, glasshouse
Method: as §1

[5] = test system: Amaranthus retoflexus (AMARE); assay: Pre-emergence herbicidal test, glasshouse
Method: as §1

[6] = test system: Amaranthus palmeri (AMAPA); assay: Post-emergence herbicidal test, glasshouse
Method: as §1

[7] = test system: Echinochloa crus-galli (ECHCG); assay: Post-emergence herbicidal test, glasshouse
Method: as §1

Setaria faberi (SETFA) [8] = assay: Post-emergence herbicidal test, glasshouse
Method: as §1

[9] = test system: Ipomoea hederacea (IPOHE); assay: Post-emergence herbicidal test, glasshouse
Method: as §1

[10] = test system: Amaranthus retoflexus (AMARE); assay: Post-emergence herbicidal test, glasshouse
Method: as §1

| SMILES | AMAPA percentage damage caused to the plant (five-point scale) [1] | ECHCG percentage damage caused to the plant (five-point scale) [2] | SETFA percentage damage caused to the plant (five-point scale) (Setaria faberi (SETFA) [3]) | IPOHE percentage damage caused to the plant (five-point scale) [4] | AMARE percentage damage caused to the plant (five-point scale) [5] | AMAPA percentage damage caused to the plant (five-point scale) [6] | ECHCG percentage damage caused to the plant (five-point scale) [7] | SETFA percentage damage caused to the plant (five-point scale) (Setaria faberi (SETFA) [8]) | IPOHE percentage damage caused to the plant (five-point scale) [9] | AMARE percentage damage caused to the plant (five-point scale) [10] |
| --- | --- | --- | --- | --- | --- | --- | --- | --- | --- | --- |
| FC(F)(F)c1ccc(-n2nc(C(F)(F)F)cc2Cc2ncc(Cl)cn2)cc1 [Compound 1.001, 5-chloro-2-[[5-(trifluoromethyl)-2-[4-(trifluoromethyl)phenyl]pyrazol-3-yl]methyl]pyrimidine] | 5 (5=81-100%) | 5 (5=81-100%) | 5 (5=81-100%) | 5 (5=81-100%) | 5 (5=81-100%) | 4 (4=61-80%) | 4 (4=61-80%) | 4 (4=61-80%) | 4 (4=61-80%) | 4 (4=61-80%) |
| FC(F)(F)c1ccc(-n2nc(C(F)(F)F)cc2Cc2ncc(Br)cn2)cc1 [Compound 1.002, 5-bromo-2-[[5-(trifluoromethyl)-2-[4-(trifluoromethyl)phenyl]pyrazol-3-yl]methyl]pyrimidine] | 5 (5=81-100%) | 5 (5=81-100%) | 4 (4=61-80%) | 5 (5=81-100%) | 5 (5=81-100%) | 4 (4=61-80%) | 5 (5=81-100%) | 4 (4=61-80%) | 4 (4=61-80%) | 4 (4=61-80%) |
| Fc1cnc(Cc2cc(C(F)(F)F)nn2-c2ccc(C(F)(F)F)cc2)nc1 [Compound 1.003] | 5 (5=81-100%) | 5 (5=81-100%) | 5 (5=81-100%) | 5 (5=81-100%) | 5 (5=81-100%) | 5 (5=81-100%) | 5 (5=81-100%) | 4 (4=61-80%) | 5 (5=81-100%) | 5 (5=81-100%) |
| COc1cnc(Cc2cc(C(F)(F)F)nn2-c2ccc(C(F)(F)F)cc2)nc1 [Compound 1.004] | 5 (5=81-100%) | 5 (5=81-100%) | 5 (5=81-100%) | 5 (5=81-100%) | 5 (5=81-100%) | 5 (5=81-100%) | 5 (5=81-100%) | 5 (5=81-100%) | 4 (4=61-80%) | 5 (5=81-100%) |
| N#Cc1ccc(-n2nc(C(F)(F)F)cc2Cc2ncc(Cl)cn2)cc1 [Compound 1.007, 4-[5-[(5-chloropyrimidin-2-yl)methyl]-3-(trifluoromethyl)pyrazol-1-yl]benzonitrile] | 5 (5=81-100%) | 5 (5=81-100%) | 5 (5=81-100%) | 5 (5=81-100%) | 5 (5=81-100%) | 5 (5=81-100%) | 5 (5=81-100%) | 5 (5=81-100%) | 3 (3=41-60%) | 5 (5=81-100%) |
| N#Cc1cc(Cc2ncc(Cl)cn2)n(-c2ccc(F)c(F)c2)n1 [Compound 1.025, 5-[(5-chloropyrimidin-2-yl)methyl]-1-(3,4-difluorophenyl)pyrazole-3-carbonitrile] | 5 (5=81-100%) | 5 (5=81-100%) | – | 5 (5=81-100%) | 5 (5=81-100%) | – | 5 (5=81-100%) | 5 (5=81-100%) | 4 (4=61-80%) | 5 (5=81-100%) |
| Fc1cc(-n2nc(C(F)(F)F)cc2Cc2ncc(Cl)cn2)cnc1Cl [Compound 1.026, 5-chloro-2-[[2-(6-chloro-5-fluoro-3-pyridyl)-5-(trifluoromethyl)pyrazol-3-yl]methyl]pyrimidine] | 5 (5=81-100%) | 5 (5=81-100%) | – | 5 (5=81-100%) | 5 (5=81-100%) | – | 5 (5=81-100%) | 5 (5=81-100%) | 2 (2=21-40%) | 5 (5=81-100%) |
| Fc1ccc(-n2nc(C(F)F)cc2Cc2ncc(Cl)cn2)cc1F [Compound 1.032, 5-chloro-2-[[5-(difluoromethyl)-2-(3,4-difluorophenyl)pyrazol-3-yl]methyl]pyrimidine] | 5 (5=81-100%) | 5 (5=81-100%) | – | 5 (5=81-100%) | 5 (5=81-100%) | 5 (5=81-100%) | 4 (4=61-80%) | – | 4 (4=61-80%) | 5 (5=81-100%) |
| Fc1ccc(-n2nc(C(F)F)cc2Cc2ncc(Cl)cn2)cc1 [Compound 1.033] | 5 (5=81-100%) | 5 (5=81-100%) | – | 5 (5=81-100%) | 5 (5=81-100%) | 5 (5=81-100%) | 4 (4=61-80%) | – | 4 (4=61-80%) | 5 (5=81-100%) |
| FC(F)(F)c1ccc(-n2nc(C(F)(F)F)c(Cl)c2Cc2ncc(Br)cn2)cc1 [Compound 1.034, 5-bromo-2-[[4-chloro-5-(trifluoromethyl)-2-[4-(trifluoromethyl)phenyl]pyrazol-3-yl]methyl]pyrimidine] | 5 (5=81-100%) | 5 (5=81-100%) | – | 5 (5=81-100%) | 5 (5=81-100%) | 5 (5=81-100%) | 4 (4=61-80%) | – | 4 (4=61-80%) | 4 (4=61-80%) |
| FC(F)(F)c1ccc(-n2nc(C(F)(F)Cl)cc2Cc2ncc(Cl)cn2)cc1 [Compound 1.036] | 5 (5=81-100%) | 5 (5=81-100%) | 5 (5=81-100%) | 5 (5=81-100%) | 5 (5=81-100%) | – | 5 (5=81-100%) | 5 (5=81-100%) | 3 (3=41-60%) | 5 (5=81-100%) |
| Cc1ccc(-n2nc(C(F)(F)F)cc2Cc2ncc(Cl)cn2)cc1 [Compound 1.037, 5-chloro-2-[[2-(p-tolyl)-5-(trifluoromethyl)pyrazol-3-yl]methyl]pyrimidine] | 5 (5=81-100%) | 5 (5=81-100%) | 5 (5=81-100%) | 1 (1=0-20%) | 5 (5=81-100%) | – | 4 (4=61-80%) | 5 (5=81-100%) | 3 (3=41-60%) | 5 (5=81-100%) |
